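Five compound concentrations were applied to cells in 96-well plates for 48 hours; endpoints were derived by simple linear interpolation of the resulting dose-response curve. GI50: concentration for 50% inhibition of growth. At the TGI there is no net growth.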
Tests used:
Assay in all cases: growth of human tumour cells (NCI), 48 h
UACC-62 melanoma = test system: UACC-62 melanoma
M19-MEL melanoma = test system: M19-MEL melanoma
EKVX NSCLC = test system: EKVX NSCLC
SNB-78 CNS = test system: SNB-78 CNS
OVCAR-3 ovarian = test system: OVCAR-3 ovarian
SF-539 CNS = test system: SF-539 CNS
KM20L2 colon = test system: KM20L2 colon
SK-MEL-5 melanoma = test system: SK-MEL-5 melanoma
DMS 114 small cell lung = test system: DMS 114 small cell lung
HOP-62 NSCLC = test system: HOP-62 NSCLC
A549 NSCLC = test system: A549 NSCLC
SR leukemia = test system: SR leukemia
SNB-19 CNS = test system: SNB-19 CNS
OVCAR-4 ovarian = test system: OVCAR-4 ovarian
M14 melanoma = test system: M14 melanoma
HCC-2998 colon = test system: HCC-2998 colon
NCI-H23 lung = test system: NCI-H23 lung
SF-268 CNS = test system: SF-268 CNS
U251 CNS = test system: U251 CNS
HL-60(TB) leukemia = test system: HL-60(TB) leukemia
MALME-3M melanoma = test system: MALME-3M melanoma
SK-OV-3 ovarian = test system: SK-OV-3 ovarian
TK-10 renal = test system: TK-10 renal
MOLT-4 leukemia = test system: MOLT-4 leukemia
DMS 273 small cell lung = test system: DMS 273 small cell lung
SK-MEL-28 melanoma = test system: SK-MEL-28 melanoma
NCI-H460 lung = test system: NCI-H460 lung
UO-31 renal = test system: UO-31 renal
SNB-75 CNS = test system: SNB-75 CNS
ACHN renal = test system: ACHN renal
SN12C renal = test system: SN12C renal
SF-295 CNS = test system: SF-295 CNS
HCT-15 colon = test system: HCT-15 colon
KM12 colon = test system: KM12 colon
UACC-257 melanoma = test system: UACC-257 melanoma
COLO 205 colon = test system: COLO 205 colon
HCT-116 colon = test system: HCT-116 colon
LXFL 529 NSCLC = test system: LXFL 529 NSCLC
HOP-92 NSCLC = test system: HOP-92 NSCLC
DLD-1 colon = test system: DLD-1 colon
OVCAR-5 ovarian = test system: OVCAR-5 ovarian
SW-620 colon = test system: SW-620 colon
K-562 leukemia = test system: K-562 leukemia
CCRF-CEM leukemia = test system: CCRF-CEM leukemia
HT29 colon = test system: HT29 colon
NCI-H522 lung = test system: NCI-H522 lung
NCI-H226 lung = test system: NCI-H226 lung
CAKI-1 renal = test system: CAKI-1 renal
IGROV1 ovarian = test system: IGROV1 ovarian
786-0 renal = test system: 786-0 renal
RXF 393 renal = test system: RXF 393 renal
SK-MEL-2 melanoma = test system: SK-MEL-2 melanoma
OVCAR-8 ovarian = test system: OVCAR-8 ovarian
LOX IMVI melanoma = test system: LOX IMVI melanoma
RPMI-8226 leukemia = test system: RPMI-8226 leukemia
A498 renal = test system: A498 renal

For `C=CCc1cc(OC)c2c(c1)C(OC(C)=O)CC(c1ccc(OC)c(OC)c1)O2` (stereo unspecified), the TGI (UACC-62 melanoma) was > 100 µM, the TGI (M19-MEL melanoma) was > 100 µM and the TGI (EKVX NSCLC) was > 100 µM. The TGI (SNB-78 CNS) was > 100 µM, the TGI (OVCAR-3 ovarian) was > 100 µM and the TGI (SF-539 CNS) was > 100 µM. For the same compound, the TGI (KM20L2 colon) was > 100 µM, the TGI (SK-MEL-5 melanoma) was > 100 µM and the TGI (DMS 114 small cell lung) was > 100 µM. The TGI (HOP-62 NSCLC) was > 100 µM, the TGI (A549 NSCLC) was > 100 µM and the TGI (SR leukemia) was > 100 µM. For the same compound, the TGI (SNB-19 CNS) was > 100 µM, the TGI (OVCAR-4 ovarian) was > 100 µM and the TGI (M14 melanoma) was > 100 µM. For the same compound, the TGI (HCC-2998 colon) was > 100 µM, the TGI (NCI-H23 lung) was > 100 µM and the TGI (SF-268 CNS) was > 100 µM. The TGI (U251 CNS) was > 100 µM, the TGI (HL-60(TB) leukemia) was > 100 µM and the TGI (MALME-3M melanoma) was > 100 µM. For the same compound, the TGI (SK-OV-3 ovarian) was > 100 µM, the TGI (TK-10 renal) was > 100 µM and the TGI (MOLT-4 leukemia) was > 100 µM. The TGI (DMS 273 small cell lung) was > 100 µM, the TGI (SK-MEL-28 melanoma) was > 100 µM and the TGI (NCI-H460 lung) was > 100 µM. The TGI (UO-31 renal) was > 100 µM, the TGI (SNB-75 CNS) was 58.6 µM and the TGI (ACHN renal) was > 100 µM. The TGI (SN12C renal) was > 100 µM, the TGI (SF-295 CNS) was > 100 µM and the TGI (HCT-15 colon) was > 100 µM. The TGI (KM12 colon) was > 100 µM, the TGI (UACC-257 melanoma) was > 100 µM and the TGI (COLO 205 colon) was > 100 µM. The TGI (HCT-116 colon) was > 100 µM, the TGI (LXFL 529 NSCLC) was > 100 µM and the TGI (HOP-92 NSCLC) was 76.2 µM. The TGI (DLD-1 colon) was > 100 µM, the TGI (OVCAR-5 ovarian) was > 100 µM and the TGI (SW-620 colon) was > 100 µM. For the same compound, the TGI (K-562 leukemia) was > 100 µM, the TGI (CCRF-CEM leukemia) was > 100 µM and the TGI (HT29 colon) was > 100 µM. For the same compound, the TGI (NCI-H522 lung) was > 100 µM, the TGI (NCI-H226 lung) was > 100 µM and the TGI (CAKI-1 renal) was > 100 µM. For the same compound, the TGI (IGROV1 ovarian) was > 100 µM.
For `CC(=O)[CH-]C(=O)c1ccccc1.CC(=O)[CH-]C(=O)c1ccccc1.CCN(CC)CC[O-].CCN(CC)CC[O-].Cl.[Hf+4]`, the GI50 (UACC-62 melanoma) was > 100 µM, the TGI (UACC-62 melanoma) was > 100 µM and the GI50 (M19-MEL melanoma) was > 100 µM. For the same compound, the TGI (M19-MEL melanoma) was > 100 µM, the GI50 (EKVX NSCLC) was 93.8 µM and the TGI (EKVX NSCLC) was > 100 µM. For the same compound, the GI50 (OVCAR-3 ovarian) was > 100 µM, the TGI (OVCAR-3 ovarian) was > 100 µM and the GI50 (SF-539 CNS) was > 100 µM. For the same compound, the TGI (SF-539 CNS) was > 100 µM, the GI50 (KM20L2 colon) was > 100 µM and the TGI (KM20L2 colon) was > 100 µM. The GI50 (SK-MEL-5 melanoma) was > 100 µM, the TGI (SK-MEL-5 melanoma) was > 100 µM and the GI50 (HOP-62 NSCLC) was > 100 µM. The TGI (HOP-62 NSCLC) was > 100 µM, the GI50 (A549 NSCLC) was > 100 µM and the TGI (A549 NSCLC) was > 100 µM. For the same compound, the GI50 (SNB-19 CNS) was > 100 µM, the TGI (SNB-19 CNS) was > 100 µM and the GI50 (OVCAR-4 ovarian) was > 100 µM. The TGI (OVCAR-4 ovarian) was > 100 µM, the GI50 (M14 melanoma) was 92 µM and the TGI (M14 melanoma) was > 100 µM. For the same compound, the GI50 (HCC-2998 colon) was > 100 µM, the TGI (HCC-2998 colon) was > 100 µM and the GI50 (NCI-H23 lung) was 19.7 µM. The TGI (NCI-H23 lung) was > 100 µM, the GI50 (SF-268 CNS) was > 100 µM and the TGI (SF-268 CNS) was > 100 µM. The GI50 (U251 CNS) was > 100 µM, the TGI (U251 CNS) was > 100 µM and the GI50 (HL-60(TB) leukemia) was > 100 µM. For the same compound, the TGI (HL-60(TB) leukemia) was > 100 µM, the GI50 (MALME-3M melanoma) was > 100 µM and the TGI (MALME-3M melanoma) was > 100 µM. For the same compound, the GI50 (SK-OV-3 ovarian) was > 100 µM, the TGI (SK-OV-3 ovarian) was > 100 µM and the GI50 (TK-10 renal) was > 100 µM. For the same compound, the TGI (TK-10 renal) was > 100 µM, the GI50 (MOLT-4 leukemia) was 65 µM and the TGI (MOLT-4 leukemia) was > 100 µM. The GI50 (SK-MEL-28 melanoma) was > 100 µM, the TGI (SK-MEL-28 melanoma) was > 100 µM and the GI50 (NCI-H460 lung) was 36.4 µM. For the same compound, the TGI (NCI-H460 lung) was > 100 µM, the GI50 (UO-31 renal) was > 100 µM and the TGI (UO-31 renal) was > 100 µM. The GI50 (ACHN renal) was 44.6 µM, the TGI (ACHN renal) was > 100 µM and the GI50 (786-0 renal) was 88.8 µM. For the same compound, the TGI (786-0 renal) was > 100 µM, the GI50 (RXF 393 renal) was 29.7 µM and the TGI (RXF 393 renal) was > 100 µM. For the same compound, the GI50 (SN12C renal) was > 100 µM, the TGI (SN12C renal) was > 100 µM and the GI50 (SF-295 CNS) was 73.2 µM. For the same compound, the TGI (SF-295 CNS) was > 100 µM, the GI50 (HCT-15 colon) was > 100 µM and the TGI (HCT-15 colon) was > 100 µM. The GI50 (KM12 colon) was > 100 µM, the TGI (KM12 colon) was > 100 µM and the GI50 (SK-MEL-2 melanoma) was > 100 µM. For the same compound, the TGI (SK-MEL-2 melanoma) was > 100 µM, the GI50 (UACC-257 melanoma) was > 100 µM and the TGI (UACC-257 melanoma) was > 100 µM. The GI50 (OVCAR-8 ovarian) was > 100 µM, the TGI (OVCAR-8 ovarian) was > 100 µM and the GI50 (LOX IMVI melanoma) was 72.9 µM. For the same compound, the TGI (LOX IMVI melanoma) was > 100 µM, the GI50 (COLO 205 colon) was > 100 µM and the TGI (COLO 205 colon) was > 100 µM. For the same compound, the GI50 (HCT-116 colon) was > 100 µM, the TGI (HCT-116 colon) was > 100 µM and the GI50 (LXFL 529 NSCLC) was > 100 µM. The TGI (LXFL 529 NSCLC) was > 100 µM, the GI50 (HOP-92 NSCLC) was 58.9 µM and the TGI (HOP-92 NSCLC) was > 100 µM. The GI50 (DLD-1 colon) was > 100 µM, the TGI (DLD-1 colon) was > 100 µM and the GI50 (OVCAR-5 ovarian) was > 100 µM. For the same compound, the TGI (OVCAR-5 ovarian) was > 100 µM, the GI50 (SW-620 colon) was > 100 µM and the TGI (SW-620 colon) was > 100 µM. The GI50 (RPMI-8226 leukemia) was > 100 µM, the TGI (RPMI-8226 leukemia) was > 100 µM and the GI50 (K-562 leukemia) was > 100 µM. The TGI (K-562 leukemia) was > 100 µM, the GI50 (CCRF-CEM leukemia) was 81.6 µM and the TGI (CCRF-CEM leukemia) was > 100 µM. The GI50 (HT29 colon) was > 100 µM, the TGI (HT29 colon) was > 100 µM and the GI50 (A498 renal) was 32.2 µM. The TGI (A498 renal) was > 100 µM, the GI50 (NCI-H522 lung) was 52.5 µM and the TGI (NCI-H522 lung) was > 100 µM. For the same compound, the GI50 (NCI-H226 lung) was 66.1 µM, the TGI (NCI-H226 lung) was > 100 µM and the GI50 (CAKI-1 renal) was > 100 µM. The TGI (CAKI-1 renal) was > 100 µM, the GI50 (IGROV1 ovarian) was > 100 µM and the TGI (IGROV1 ovarian) was > 100 µM.

Source: PubChem BioAssay (NCI)
